We go through one molecule from paper PMC2724708, “Adenosine Kinase of T. b. rhodesiense Identified as the Putative Target of 4-[5-(4-phenoxyphenyl)-2H-pyrazol-3-yl]morpholine Using Chemical Proteomics” (PLoS Neglected Tropical Diseases, 2009).

Where two headings read alike, the source gives them in different places.

Series [1] concerns the target T1, adenosine kinase of T. b. rhodesiense (TbrAK) (Trypanosoma brucei rhodesiense, UniProt Q584S0).
T1 sequence (Q584S0 1-345): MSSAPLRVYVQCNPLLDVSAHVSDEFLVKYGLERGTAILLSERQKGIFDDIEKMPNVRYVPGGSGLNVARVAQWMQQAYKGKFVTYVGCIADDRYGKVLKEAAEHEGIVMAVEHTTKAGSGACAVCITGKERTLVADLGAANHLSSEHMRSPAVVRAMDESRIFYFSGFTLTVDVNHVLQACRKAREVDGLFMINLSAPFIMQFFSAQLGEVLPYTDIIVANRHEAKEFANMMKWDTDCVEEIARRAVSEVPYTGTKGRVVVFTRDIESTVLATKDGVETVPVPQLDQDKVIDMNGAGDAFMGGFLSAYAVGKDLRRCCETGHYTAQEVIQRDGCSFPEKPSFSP
As to the kind of experiment: HPLC activity assay for TbrAK. The class given is biochemical. Here is the method:
TbrAK catalyzes the ATP-dependent phosphorylation of the 5′-hydroxyl moiety of adenosine to form AMP and ADP. The activity assay was based on HPLC separation of substrate and products (adenosine, AMP, ADP, and ATP). The mobile phase consisted of 35 mM KH2PO4, 6 mM tetrabutylammonium hydrogensulfate, (pH 7.0, adjusted with KOH), 125 mM EDTA, and 1% (v/v) acetonitrile. The separation was performed isocratically at a flow-rate of 1.5 ml/min and monitored at 254 nm. The standard reaction in 75 µl total volume containing 0.5 mM ATP, 0.5 mM adenosine, 0.5 mM MgCl2, 1% DMSO in buffer E1 (20 mM Hepes, 150 mM NaCl, pH 7.0) was started with the addition of 2 µg TbrAK (final concentration 0.7 µM) and incubated at 37°C for 10 min while shaking vigorously (600 rpm). […] All reactions were stopped by adding 75 µl mobile phase. 50 µl of the sample volume were injected for analysis and the resulting ADP/ATP ratios were calculated and used as a measure of activity. For comparative reasons the activity recorded in absence of compound was set to 100%. The mean of three independent measurements are reported.

The target in series [2] is T1, adenosine kinase of T. b. rhodesiense (TbrAK). As to the kind of experiment: Radiometric assay for EC50 determination (TbrAK hyperactivation). Type of series: biochemical. The settings on record: 12 µM [2-3H]adenosine, 167 µM ATP, 0.88 nM TbrAK, 37°C. Here is the method: Radiometric assay for EC50 determination
The EC50 for hyperactivation of TbrAK by compound 1 was obtained by monitoring the conversion of [2-3H]adenosine to [2-3H]AMP. Reactions were executed at 37°C in a final volume of 30 µl containing 20 mM Hepes, 50 mM NaCl, 167 µM ATP, 167 µM MgCl2, 0.33 % BSA, and 1.0 % DMSO. The concentration of [2-3H]adenosine was kept constant at 12 µM while compound 1 was varied in the range of 0-100 µM. The reaction was started by the addition of 1 ng (0.88 nM) TbrAK. The reactions were incubated and 5 µl aliquots were spotted on 5 mm diameter DE81-cellulose disks placed in a 96-well plate to stop the reaction. The disks were washed 3 times with 250 µl 5 mM ammonium formate, once with H2O, transferred to scintillation vials, and then soaked with 2 ml of the displacement solution (100 mM HCl, 200 mM KCl) and gently shaken for 1 minute to elute the phosphorylated product. After adding 10 ml scintillation liquid, the samples were counted. For comparative reasons the activity recorded in absence of compound was set to 100 %. The mean of four independent measurements is reported.

Series [3] concerns bloodstream-form T. b. brucei TbAK RNAi cells. Description: Drug sensitivity test (Alamar blue) on TbAK RNAi knock-down mutant. Type of series: cell-based. The following applies: Trypanosoma brucei. Here is the method: The construction of the T. b. brucei adenosine kinase gene knock-down mutant has been described recently. Expression of a stem-loop construct targeting TbAK was induced by addition of 10 µg/ml tetracycline to the medium. Down-regulation of TbAK expression was verified by Northern blotting. Parasites were cultivated and drug sensitivity was tested using the Alamar blue test. IC50 values were calculated by nonlinear fitting to the sigmoidal dose-response curve using Origin® software. The assays were performed in triplicates for at least four times.

Series [4] addresses T1, adenosine kinase of T. b. rhodesiense (TbrAK). Description: Thermal stability assay (CD spectroscopy) regarding TbrAK. Type of series: binding. How it is done:
Thermal unfolding of TbrGAPDH and TbrAK was studied by circular dichroism (CD) spectroscopy at 220 nm within the temperature range of 20–90°C using a heating rate of 40°C/h.
TbrAK in buffer E1 (20 mM Hepes, 150 mM NaCl, pH 7.0) was used at 0.5 mg/ml (final concentration 13 µM). All measurements were done in a 0.5 mm cell and contained 0.1 % DMSO and 2.5 mM EDTA to prevent enzyme activity. Thermal stability was analyzed in presence of 500 µM substrate to record the maximum stability limit, whereas compounds 1 to 5 were used at a concentration of 50 µM, being the highest concentration achievable for compound 2, to allow comparison of all compounds at the same concentration. For evaluation of the CD spectra, the buffer spectrum was subtracted from the protein CD spectrum. All thermal unfolding curves were fitted to a two-state model that had been published recently. The mean of three independent experiments are reported. […]

Details of series [5]: method as in PMID 17949068. The settings on record: cited from earlier work.
Series [6] addresses T1, adenosine kinase of T. b. rhodesiense (TbrAK). Description: Isothermal titration calorimetry (ITC) with TbrAK. The settings on record: for Kd: two-sites non-interacting binding model. Type of series: binding. Here is the method:
Isothermal titration calorimetry (ITC) was employed to elucidate the binding affinity of compound 1 toward TbrAK. All solutions were degassed for 5 min with gentle stirring under vacuum. TbrAK was dialyzed into buffer E2 (20 mM Tris, 150 mM NaCl, pH 7.5, 5% glycerol), diluted to 7 µM and supplemented with 1% DMSO, filtered and filled into the sample cell. The ligand solution was prepared by diluting a stock solution of compound 1 or 5 in DMSO with buffer E2 to give a final concentration of 150 µM and 1% DMSO. The final ligand solution was filtered before use. A titration experiment consisted of a first control injection of 1 µl followed by 27 injections, each of 10 µl and 20 s duration, with a 4-min interval in between. Raw data were collected, corrected for ligand heats of dilution, integrated and fit to the two-set non-interacting binding sites model using the Origin® software supplied with the instrument. The measurements were performed at least in duplicate.

As to `c1ccc(Oc2ccc(-c3cc(N4CCOCC4)[nH]n3)cc2)cc1` [compound 1, 4-[5-(4-phenoxyphenyl)-2H-pyrazol-3-yl]morpholine], in series [1] (50 µM compound, 0.7 µM TbrAK, 10 min, 37°C, ADP/ATP ratio, read-out: TbrAK activity in presence of compound (% of activity without compound)), the activity at 50 µM was 245 ± 3%. Moreover, the EC50 was found to be 38.9 ± 0.9 µM in series [1] (0.5 mM ATP, 0.5 mM adenosine, 0.7 µM TbrAK, read-out: EC50 of TbrAK activation (HPLC assay)) and 38 ± 12 nM in series [2]. In addition, the fold induction at 50 µM in series [1] (10 min, pH 7, 50 µM compound, read-out: fold increase of TbrAK activity) came out at 2.5. In addition, the “concentration dependence of the activation effect” value in series [1] (range 1–750 µM, up to solubility limit) is on record as “concentration dependent”. Further, the IC50 in series [3] (read-out: IC50 on TbAK RNAi cells, induced) came out at 271 ± 25 nM; in series [3] (read-out: IC50 on TbAK RNAi cells, non-induced), 131 ± 43 nM. The “Tm of TbrAK” value in series [4] (compound at 50 µM, 13 µM TbrAK) was found to be 47.9±0.1 °C. Moreover, the ΔTm at 50 µM in series [4] (read-out: ΔTm of TbrAK) turned out to be 4.8 °C. Also, the “cytotoxicity / general toxicity” value in series [5] is reported as “low cytotoxicity”. For the same molecule, in series [6], the “molecules of compound bound per molecule of enzyme” value is reported as “two”. For the same molecule, the “ΔHbind, high affinity binding site” value in series [6] is -3.05 ± 0.77 kcal/mol. In addition, in series [6], the “ΔHbind, low affinity binding site” value is -1.13 ± 0.24 kcal/mol. For the same molecule, the Kd was 75 ± 20 nM in series [6] (read-out: KD, high affinity binding site) and 497 ± 34 nM in series [6] (read-out: KD, low affinity binding site).
